{"source": "patent US20250306032A1", "about": "“METHODS FOR IDENTIFYING REACTIVE FUNCTIONAL CYSTEINES IN NUCLEAR PROTEINS” (Talus Bioscience, Inc., priority 2022, published 2025)", "assay_type_in_all_cases": "cell-based", "key": {"[1]": {"target": "T1, poly(ADP-ribose) polymerase-1 (PARP1) (Homo sapiens, UniProt P09874)", "T1 construct": "endogenous in cells; host or cells: THP-1", "T1 sequence (P09874 whole entry)": "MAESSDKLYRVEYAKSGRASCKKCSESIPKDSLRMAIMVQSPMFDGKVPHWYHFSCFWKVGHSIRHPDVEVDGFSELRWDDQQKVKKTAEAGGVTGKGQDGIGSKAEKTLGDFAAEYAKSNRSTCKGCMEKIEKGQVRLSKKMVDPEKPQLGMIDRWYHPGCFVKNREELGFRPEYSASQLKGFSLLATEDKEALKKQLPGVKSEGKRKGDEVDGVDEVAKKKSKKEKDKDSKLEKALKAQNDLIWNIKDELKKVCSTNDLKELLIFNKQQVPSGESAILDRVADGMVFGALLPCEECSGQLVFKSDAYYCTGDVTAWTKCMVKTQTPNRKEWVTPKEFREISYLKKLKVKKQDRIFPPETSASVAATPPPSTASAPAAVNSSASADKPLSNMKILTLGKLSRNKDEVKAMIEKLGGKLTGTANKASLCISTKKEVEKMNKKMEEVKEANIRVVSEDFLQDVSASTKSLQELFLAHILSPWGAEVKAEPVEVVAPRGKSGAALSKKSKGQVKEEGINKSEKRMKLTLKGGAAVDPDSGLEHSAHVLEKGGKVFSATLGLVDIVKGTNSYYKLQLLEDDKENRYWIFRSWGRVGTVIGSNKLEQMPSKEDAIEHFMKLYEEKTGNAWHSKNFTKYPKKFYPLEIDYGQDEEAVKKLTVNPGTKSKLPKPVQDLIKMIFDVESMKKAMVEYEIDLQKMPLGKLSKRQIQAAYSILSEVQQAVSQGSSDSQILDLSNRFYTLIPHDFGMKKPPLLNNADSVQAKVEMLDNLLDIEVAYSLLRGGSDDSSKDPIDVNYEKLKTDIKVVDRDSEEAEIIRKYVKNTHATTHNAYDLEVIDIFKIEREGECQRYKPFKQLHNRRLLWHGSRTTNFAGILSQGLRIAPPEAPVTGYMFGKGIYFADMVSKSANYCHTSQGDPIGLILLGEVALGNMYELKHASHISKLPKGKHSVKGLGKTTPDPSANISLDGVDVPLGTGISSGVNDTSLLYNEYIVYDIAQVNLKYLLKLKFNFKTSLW", "test": "Reactive cysteine identification with Biotin-IA in THP-1 cells (mass spectrum)", "conditions": "10 μM", "experimental": "The mass shift associated with NM-IAA is 71.03 Dalton (Da). […] THP-1 cells were treated with 10 μM biotin polyethyleneoxide iodoacetamide (Biotin-IA). Biotin-IA reacted with a cysteine in the peptide SDAYYCTGDVTAWTK (SEQ ID NO: 2) from the poly(ADP-ribose) polymerase-1 (PARP1) protein."}, "[2]": {"target": "T2, CCCTC-binding factor (CTCF) (Homo sapiens, UniProt P49711)", "T2 construct": "endogenous in cells; host or cells: THP-1", "T2 sequence (P49711 1-727)": "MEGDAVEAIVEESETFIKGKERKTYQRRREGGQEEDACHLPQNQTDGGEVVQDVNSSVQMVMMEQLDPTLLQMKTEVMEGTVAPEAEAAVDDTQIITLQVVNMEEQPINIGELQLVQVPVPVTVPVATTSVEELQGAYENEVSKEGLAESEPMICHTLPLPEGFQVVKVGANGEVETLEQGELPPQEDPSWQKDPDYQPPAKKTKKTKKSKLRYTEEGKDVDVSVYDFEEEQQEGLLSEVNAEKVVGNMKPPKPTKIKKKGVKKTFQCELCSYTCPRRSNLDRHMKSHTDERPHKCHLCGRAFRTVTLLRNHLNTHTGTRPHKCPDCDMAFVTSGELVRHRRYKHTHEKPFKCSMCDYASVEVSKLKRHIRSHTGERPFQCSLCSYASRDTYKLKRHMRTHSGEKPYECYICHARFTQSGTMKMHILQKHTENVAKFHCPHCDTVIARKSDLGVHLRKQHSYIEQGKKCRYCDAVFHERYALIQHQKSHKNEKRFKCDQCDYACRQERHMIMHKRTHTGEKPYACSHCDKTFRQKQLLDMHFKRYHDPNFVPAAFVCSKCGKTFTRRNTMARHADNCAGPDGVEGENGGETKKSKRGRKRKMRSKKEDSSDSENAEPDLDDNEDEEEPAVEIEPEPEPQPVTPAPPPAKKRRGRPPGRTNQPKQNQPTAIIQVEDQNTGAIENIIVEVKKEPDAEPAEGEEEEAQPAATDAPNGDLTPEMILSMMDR", "test": "Reactive cysteine identification by ChESS fractionation and mass spectrometry in THP-1 cells", "conditions": "12.5 μM, 4 hours, mass spectrometry", "experimental": "(§1) Five million cells, from leukemia, myeloma, or other cancer cell cultures, were treated with 12.5 μM n-methyl iodoacetamide (NM-IAA) in triplicate for 4 hours. The cells were then washed with phosphate-buffered saline (PBS) and fractionated using chromatin enriching salt separation (ChESS). ChESS used four sequential buffer washes of increasing ionic strength to separate the cellular proteome into cytosolic-, nucleoplasm-, euchromatin-, and heterochromatin-enriched fractions, as outlined in FIG. 1. Each of the fractions was digested using trypsin and analyzed using a data-dependent acquisition (DDA) strategy on an Evosep One-ThermoFisher Exploris 480 orbitrap platform. The results were analyzed using the Comet search tool with the mass of the NM-IAA addition as a variable modification on cysteine residues, then filtered at a 1% false discovery rate with Peptide Prophet or mokapot. DDA results were quantified with FlashLFQ. Each sample was also acquired using a data independent acquisition (DIA) approach on the same mass spectrometer in order to accurately quantify the peptides and proteins in each sample. DIA samples were analyzed using EncyclopeDIA with a spectral library that was generated using the results from DDA analysis and Comet search results or using a predicted spectral library from Prosit.\nTHP-1 acute monocytic leukemia cells were grown to 95% viability. […]"}, "[3]": {"target": "T3, CTCF (Homo sapiens, UniProt P49711)", "T3 construct": "endogenous in cells; host or cells: THP-1", "T3 sequence (P49711 1-727)": "T2 sequence (P49711 1-727)", "test": "Movement of transcription factor between ChESS fractions after NM-IAA treatment", "conditions": "ChESS fractionation after NM-IAA treatment", "experimental": "as §1, with “Prosit. […]” for “Prosit.”"}}}
{"compound": "biotin polyethyleneoxide iodoacetamide [Biotin-IA]", "values": [{"measurement": "reaction with a cysteine in PARP1 peptide SDAYYCTGDVTAWTK (SEQ ID NO: 2)", "setting": "[1]", "result": "reacted"}]}
{"compound": "CNC(=O)CI", "note": "[NM-IAA, n-methyl iodoacetamide]", "values": [{"measurement": "modification of the cysteine in CTCF peptide YHDPNFVPAAFVCSK (SEQ ID NO: 1)", "setting": "[2]", "result": "modified"}, {"measurement": "CTCF localisation in ChESS fractions after NM-IAA modification", "setting": "[3]", "result": "ejected from heterochromatin and observed in the nucleoplasm fraction"}]}
